# Test results: patent US20210154162A1, “DRUG AND PHARMACEUTICAL COMPOSITION CONTAINING TRANSPORT PROTEIN INHIBITOR, AND USE” (Institute of Basic Medical Sciences Chinese Academy of …, priority 2018, published 2021)
# Assays:
# [1] = tested on: PD-1; experiment: Effect of SAR and BCH on PD-1 expression in human peripheral blood CD8+ T cells (flow cytometry); type: cell-based; details: breast cancer patients, 200 μM Kyn, 48 h
# Procedure: (§1) Mononuclear cells were isolated and obtained from the peripheral whole blood of breast cancer patients by using Ficoll. CD8^+ T cells were sorted by magnetic beads, and seeded into a U-shaped bottom 96-well plate (100000 cells/well) while anti-CD3/CD28 magnetic beads were added to activate T cells. The culture medium was RPMI-1640 added with 10 ng/mL human IL-2. Cells were grouped and treated with drugs as follows.
# (§2) Control group 1 (PBS): culture medium+PBS;
# (§3) Experimental group 2 (Kyn): culture medium+200 μM Kyn;
# Experimental group 3 (Kyn+SAR): culture medium+200 μM Kyn+10 mM SAR; Experimental group 4 (Kyn+BCH): culture medium+200 μM Kyn+100 μM BCH;
# (§4) The expression level of PD-1 in CD8^+ T cells of each group was determined by flow cytometry after 48 h.
# [2] = tested on: CD8^+ T cells; experiment: Kyn i.p. injection in WT or AhR-/- C57BL/6 mice, analysis of CD8+ T cells; type: in vivo, mouse
# Procedure: (1) WT C57BL/6 mice were i.p. injected with PBS or Kyn (50 μg, once per day) for 5 days, and CD8^+ T cells were sorted by FACS from the spleen and mesenteric lymph nodes. PD-1 expression was determined by flow cytometry (FIG. 6A). Some CD8^+ T cells from spleen were immunostained with AhR and DAPI (FIG. 6B), and the mRNA expression of PAT4 and SLC7A8 was determined by real-time PCR (FIG. 6C). […] Bar, […]. (2) The experimental steps were the same as those of step (1), except that AhR^−/− mice were used. (3) PD-1 expression in resting or anti-CD3/CD28 bead-activated splenic CD8^+ T cells was determined, wherein said cells were isolated from AhR^−/− C57BL/6 mice injected with PBS or Kyn for 5 days.
# [3] = tested on: PD-1; experiment: Effect of SAR and BCH on PD-1 expression in mouse CD8+ T cells (flow cytometry); type: cell-based; details: 200 μM Kyn, 48 h
# Procedure: Mouse splenic CD8^+ T cells were obtained by magnetic bead sorting, and seeded into a U-shaped bottom 96-well plate (100000 cells/well) while anti-CD3/CD28 magnetic beads were added to activate T cells. The culture medium was RPMI-1640 added with 10 ng/mL mouse IL-2 and […] β-mercaptoethanol. Cells were grouped and treated with drugs as follows.
# as §2, §3
# Experimental group 3 (Kyn+SAR): culture medium+200 μM Kyn+10 mM SAR;
# Experimental group 4 (Kyn+BCH): culture medium+200 μM Kyn+100 μM BCH;
# as §4
# [4] = tested on: OT-1 CD8^+ T cells; experiment: IFN-γ expression of OT-1 CD8+ T cells co-cultured with OVA-peptide loaded APCs; type: cell-based, mouse; details: OT-1 CD8+ T cells pretreated with Kyn 200 μM 72 h, upon PD-1 blockade
# Procedure: (10) Splenic APCs pulsed with OVA257-264 (2 μg/ml) were co-cultured with OT-1 CD8^+ T cells in the presence of IgG or anti-PD-1 neutralizing antibody (10 μg/ml) for 72 h. IFN-γ expression was measured by flow cytometry (left). Or, CD8^+ T cells from OT-1 mice were treated with Kyn (200 μM) for 72 h, then co-cultured with OVA-peptide loaded APCs and treated with or without anti-PD-1 neutralizing antibody for 72 h (right). The data represented mean±SEM.
# [5] = tested on: PD-1; experiment: PD-1 expression in human CD8+ T cells treated with Kyn and AhR inhibitors (flow cytometry); type: cell-based; details: resting and activated CD8+ T cells from healthy donors, breast and lung cancer patients; Kyn 200 μM, 48 h
# Procedure: (4) CD8^+ T cells isolated from PBMCs of patients with breast cancer or lung cancer were activated by anti-CD3/CD28 beads and treated with PBS, Kyn (200 μM) or Kyn/DMF (20 μM) for 48 h. The expression of PD-1 was determined by flow cytometry.
# (5) CD8^+ T cells isolated from patients with breast cancer or lung cancer were treated with DMF (20 μM) for 48 h. PD-1 expression was determined by flow cytometry (n=6).
# [6] = tested on: AhR; experiment: AhR translocation in human peripheral CD8+ T cells; type: cell-based; details: resting and activated peripheral CD8+ T cells from breast and lung cancer patients, Kyn treatment
# [7] = tested on: CD8^+ T cells; experiment: Essential amino acids in the cytosol of activated CD8+ T cells (LC-QE-MS); type: cell-based; details: 48-hour Kyn treatment
# Source text: Regarding the antiport function in many transport systems, the inventors additionally analyzed the influence of SLC7A8 and PAT4 on the transport of other essential amino acids. After 48-hour treatment with or without Kyn, anti-CD3/CD28 bead-activated CD8^+ T cells were used to analyze essential amino acids in the cytosol by LC-QE-MS.
# [8] = tested on: PAT4 and SLC7A8; experiment: Effect of Kyn on the expression of PAT4 and SLC7A8 in human peripheral blood CD8+ T cells (fluorescence quantitative PCR); type: cell-based; details: activated peripheral blood CD8+ T cells of breast cancer patients, 200 μM Kyn, 48 h
# Procedure: as §1, with “follows. Control group 1 (PBS): culture medium+PBS; Experimental group 2 (Kyn): culture medium+200 μM Kyn; RNA was collected from cells in each group after 48 h, and the expression of PAT4 and SLC7A8 was determined by fluorescence quantitative PCR.” for “follows.”
# [9] = tested on: PD-1; experiment: ID8 ovarian cancer and H22 hepatocarcinoma ascites peritoneal tumor models; type: in vivo, mouse; details: Kyn i.p., 6 days
# Procedure: (10) C57BL/6 mice were intraperitoneally injected with 1×10^6 ID8 ovarian cancer cells. After 10 days, mice were intraperitoneally administered with PBS, Kyn, DMF or Kyn+DMF for 6 days. CD8^+ T cells from ascites were isolated and PD-1 expression was determined by flow cytometry (n=5).
# [10] = tested on: B16 melanoma; experiment: B16 melanoma-bearing C57BL/6 mice treated with Kyn, DMF or Kyn+DMF; type: in vivo, mouse
# Procedure: (9) C57BL/6 mice with 5×5 mm B16 melanoma were treated with PBS, Kyn (50 μg/mouse, i.p., once every two days), DMF (5 μg/mouse, o.t., once every day) or Kyn+DMF for 6 days. PD-1 expression in CD8^+ T cells isolated from tumors was determined by flow cytometry (n=5). (14) The experimental steps were the same as those of step (9), except that the tumors were weighed. The weighing results were as shown in FIG. 6P. *p<0.05, **p<0.01; #p<0.05, ##p<0.01, as compared with CTL group. The data represented mean±SEM.
structure (smiles),measurement,setting,value
"Nc1ccccc1C(=O)CC(N)C(=O)O (stereo not drawn) [Kyn, kynurenine]",PD-1 expression in peripheral blood CD8+ T cells,[1],significant increased
same,PD-1 expression,"[2]; AhR-/- mice, Kyn for 5 days",failed to induce
same,PD-1 expression in CD8+ T cells of spleen and lymph nodes,"[2]; WT C57BL/6 mice, Kyn 50 μg i.p. once per day, 5 days",upregulated PD-1 expression
same,expression of Kyn transporters SLC7A8 and PAT4,"[2]; WT C57BL/6 mice, Kyn 50 μg i.p., 5 days",upregulated
same,AhR localisation in CD8+ T cells,"[2]; WT C57BL/6 mice, Kyn 50 μg i.p., 5 days, spleen",translocated to the nucleus
same,expression of PD-1 in CD8+ T cells,[3],significant increased
same,production of IFN-γ,[4],upregulated
same,PD-1 expression,[5],upregulated
same,AhR localisation,[6],promoted the translocation of AhR from the cytosol to nucleus
same,essential amino acids in the cytosol,[7],had no effect on most of the essential amino acids except some decrease of the intensity of threonine
same,expression of PAT4 and SLC7A8,[8],significantly upregulating
same,"PD-1 expression in peritoneal, splenic or lymph node CD8+ T cells",[9],promoted
same,expression of IFN-γ and TNF-α,[9],inhibited
same,"PD-1 expression in CD8+ T cells isolated from tumor, spleen or lymph nodes","[10]; Kyn 50 μg/mouse i.p. once every two days, 6 days",upregulate
same,tumor growth (tumors weighed),[10]; Kyn-treatment,accelerated tumor growth
